Assay [1] concerns collagen I and III synthesis. The experiment in a line: [3H]-Proline incorporation as measure of collagen deposition. Type of assay: cell-based, human. An excerpt: This human skin substrate consists of neonatal foreskin fibroblasts that secrete a functionally active extracellular matrix grown on a medical-grade nylon mesh cocultured with human neonatal foreskin keratinocytes that differentiate into a multilayered epidermis.
Quantifying proline incorporation can be used to measure potential collagen deposition stimulated by a test substance. This concept is the foundation for the following experiments.

For assay [2], the system named is PGE2 synthesis by 3T3 fibroblasts. The experiment in a line: Inhibition of PGE2 synthesis by 3T3 fibroblasts (ELISA). It is filed as cell-based. Conditions: for [PGE2]: 24 h. From the text:
This Example establishes the anti-inflammatory potential of GC-100 by measuring the inhibition of PGE2 synthesis by 3T3 fibroblasts in cell culture.
The cells are nourished in a medium enriched with arachidonic acid which leads to increased secretion of eicosanoids into the medium.
The formation of prostaglandin PGE2 will be followed as a marker of eicosanoid synthesis, because it is a stable molecule secreted preferentially by 3T3 fibroblasts. The anti-inflammatory potential of an active ingredient may then be investigated by following the decrease in secretion of PGE2 in the culture medium.
Quantification of PGE2 will be achieved using an enzyme-linked immunosorbant assay (ELISA). In principle, the PGE2 expressed by the cells in culture medium will compete with enzyme-linked PGE2 for available antibody, which is a constant. The concentration of enzyme-linked PGE2 is also constant and quantified prior to testing. The enzyme linked to PGE2 prior to testing is acetylcholinesterase. Since the quantity of PGE2 expressed by 3T3 cells in culture will vary based on the concentration of GC-100 present, the amount of antibody available to bind to the enzyme-linked PGE2 versus that produced by the 3T3 cells assumes an inverse relationship that is dependent on Brownian motion. After eliminating unreacted PGE2 through washing, substrate is added that binds to the enzyme-PGE2-antibody complex to generate a yellow color that is strongly evident using spectrophotometer set at 412 nm. The amount of light transmitted through the test sample is directly proportional to the intensity of the color change and, consequently, to the concentration of PGE2-enzyme-antibody complex.
Create a mother solution (solution #1) containing complete DMEM, alcohol, and 2×10^5 3T3 fibroblasts for plating onto 25 cm^2 culture dishes. Using a compounding dilution technique, prepare the following solutions, using 5 mL of media per plate: • Solution #2: Solution #1 plus arachidonic acid (10^−3% P/V) • Solution #3: Solution #2 plus indomethacin (0,1,10^−3% P/V) • Solution #4: Solution #2 plus GC-100 0.5% • Solution #5: Solution #2 plus GC-100 1.0%
Incubate all preparations for 24 hours at 37° C. Recover the supernatant media, and if needed deep freeze it at −20° C. before quantification. Count the number of surviving cells using a coulter counter. Establish a calibration curve of the quantity of PGE2. Quantify the supernatant media using an enzyme-linked immunosorbant assay kit specific for PGE2 (Cayman), using a Dynotech microplate reader (MR500) with a filter set at 412 nm. Calculate the % inhibition of PGE2 synthesis. The results are shown in Table 4 and FIG. 10, which is a graph showing mean suppression of PGE2 concentration in test media comprising indomethacin or GC-100.
(In general: An ELISA detects its analyte on a solid surface through an enzyme-linked reagent.)

Where [3] appears, read: DMEM + AA + Indomethacin, column A.
Setting [4] is: DMEM + AA + Indomethacin, column B.
Where [5] appears, read: DMEM + AA + Indomethacin, column C.

This note sets out measurements from patent publication US11793746B2, “Intense skin hydration systems and methods” (priority 2020, dated 2023).

On to `ClCc1ccccc1` [benzyl chloride], for which the “proline incorporation relative to control levels” value in assay [1] was “suppress proline incorporation below control levels”.
With `O=C1O[C@H]([C@@H](O)CO)C(O)=C1O` [ascorbic acid], the “influence of ascorbic acid on proline incorporation” value in assay [1] (higher than optimal concentrations of ascorbic acid) is given as “suppress proline incorporation”.
In the case of `COc1ccc2c(c1)c(CC(=O)O)c(C)n2C(=O)c1ccc(Cl)cc1` [Indomethacin, indomethacin, reference compound], in assay [2] (DMEM + AA + Indomethacin), the “% change of PGE2 vs DMEM + AA, MEAN” value is listed as −87.2%. Further, the “% change of PGE2 vs DMEM + AA” value in assay [2] (setting [3]) is given as −91%; in assay [2] (setting [4]), −88%; in assay [2] (setting [5]), −82.6%. For the same compound, the figures for the “[PGE2]” value in assay [2] (setting [3]), in assay [2] (setting [4]) and in assay [2] (setting [5]) were 0.27 pg/mL, 0.35 pg/mL and 0.50 pg/mL, respectively. The “suppression of PGE2 expression” value in assay [2] (indomethacin) was found to be 87%.
